From ChEMBL document CHEMBL4052616, “Isoniazid derivatives and their anti-tubercular activity” (Eur J Med Chem, 2017)
Converted amounts (≈) assume the structure as drawn.

Tested on: Mycobacterium tuberculosis variant bovis
Test: Antimycobacterial activity against Mycobacterium bovis 8 by serial dilution method
Format: functional

NNC(=O)c1ccncc1 [ISONIAZID]
MIC: 0.015 to 0.06 µg/mL (≈ 0.109 to 0.438 µM)
